Measurements published in patent US20100160445A1, “Synergistic Mixtures of OPP and DGH” (priority 2002, published 2010).

Columns and labels:
[1] = tested on: wild strain bacteria isolated from previously contaminated systems; assay: In-Can Preservation Test of paint samples; format: cell-based; details: for Effective Preservative (ppm): two inoculation challenge; on Microbial growth, 1st Inoculation, 1st sub-column: key: 4 = Heavy Microbial Growth; 3 = Moderate Microbial Growth; 2 = Slight Microbial Growth; 1 = Trace Microbial Growth; 0 = No Microbial Growth; on Microbial growth, 1st Inoculation, 2nd sub-column: key: 4 = Heavy Microbial Growth; 3 = Moderate Microbial Growth; 2 = Slight Microbial Growth; 1 = Trace Microbial Growth; 0 = No Microbial Growth; on Microbial growth, 2nd Inoculation, 1st sub-column: key: 4 = Heavy Microbial Growth; 3 = Moderate Microbial Growth; 2 = Slight Microbial Growth; 1 = Trace Microbial Growth; 0 = No Microbial Growth; on Microbial growth, 2nd Inoculation, 2nd sub-column: key: 4 = Heavy Microbial Growth; 3 = Moderate Microbial Growth; 2 = Slight Microbial Growth; 1 = Trace Microbial Growth; 0 = No Microbial Growth
Protocol: Preservation Testing was performed on the three paint samples: Acrylic Flat, Acrylic and Vinyl Acrylic. Each sample was treated with various levels OPP, DGH individually and a mixture of OPP and DGH. All samples were then inoculated with wild strain bacteria isolated from previously contaminated systems. Following the initial inoculation, the samples were reinoculated on day 7. This testing scenario best simulates what happens in a “real world” situation. […]

[2] = tested on: mixed inoculum of bacteria; assay: MIC and synergy (K) in nutrient broth, microtiter plates; format: cell-based
Protocol: Stock solutions of each product were prepared in sterile distilled water. Synergism was measured by the method first described by F. C. Kull, P. C. Eisman, H. D. Sylwestrowicz and R. L. Mayer in Applied Microbiology, 9, 538-41 ([…]). This manner of determining synergism has been widely used and is industrially acceptable. It is believed that the specified method is sufficient in explaining the process. However for a further description, reference can be made to U.S. Pat. No. 3,231,509 and its file history, where this type of data was considered acceptable.
• 1. Incubator capable of maintaining a variable temperature range (25-45 C) • 2. Samples of each biocide or test compound to be examined • 3. Microtiter plates—96 well with lid, sterile. • 4. 8-12 channel micropipetting device capable of pipetting 0-250 ul volumes • 5. Micropipette tips capable of holding up to 250 ul volumes • 6. Sterile microbiological culture broth. Trypticase Soy Broth (TSB) or Nutrient Broth (NB) is recommended for bacteria and Sabouraud Maltose Broth (SMB) or Sabouraud Dextrose Broth (SDB) is recommended for yeasts and molds. In the case of this particular study the microbiological culture medium was Nutrient Broth at pH 7.0, 8.0 and 9.0. • 7. Pure cultures of microorganisms of choice grown on appropriate agar medium • 8. Sterile distilled water • 9. 100 mL volumetric flasks (one for each biocide to be tested) • 10. Sterile 10 mL tubes of Phosphate buffer (Butterfield's buffer pH 7.2+/−0.2). Contains purified water, monobasic potassium phosphate and sodium hydroxide for pH adjustment. • 11. Sterile cotton swabs • 12. 0.5 MacFarland Turbidity Standard
The day before testing, perform a streak plate of each organism to be tested on an appropriate agar medium (Trypticase Soy Agar). Organisms tested in this study were: Wild strain bacteria isolated from previously contaminated industrial systems and which were identified as: Pseudomonas sp., Escherchia coli , Enterobacter sp., Alcaligenes sp. and Alcaligenes faecalis. On the day of the test, use a sterile cotton swab to harvest some of the growth. Place swab into a tube containing 10 mL sterile phosphate buffer. Compare and adjust the turbidity of the organisms in the tube to 1×10^8 cfu/mL using a 0.5 MacFarland Turbidity Standard. Dilute the 10 mL tube into 90 mL of sterile 2× nutrient broth at pH 7.0, 8.0 and 9.0.
1. Design the layout of the microtiter plates based on the number of organisms to test and the number of biocides and desired concentrations to test. A separate microtiter plate is required for testing each biocide alone, in addition to the combination microtiter plate. 2. Prepare a working stock solution of each biocide to be tested. For the combination microtiter plate, the working stock solution of Biocide A will be 8× the concentration desired in the first well of the combination microtiter plate. The working stock solution of Biocide B will be 4× the concentration desired in the first well of the combination microtiter plate. For the alone microtiter plates, the working stock solutions of Biocide A and Biocide B will both be 4× the concentration desired in the first well of the single biocide microtiter plates.
Dodecylguanidine hydrochloride: (For combination plates) A solution of this product which is 35% active, was made as follows: […]=8000 ppm active=8000/0.35=22,857 ppm, 2.28 g into 100 mL sterile diH2O. Levels to test are: 1000 ppm, 500 ppm, 250 ppm, 125 ppm, 62.5 ppm, 31.2 ppm, 15.6 ppm, 7.8 ppm, 3.9 ppm, 1.95 ppm
Ortho-PhenylPhenol: (For combination plates) Make a solution of this product which is 99% active, 4×125=500 ppm active=500/0.99=505 ppm, 0.05 g into 100 mL MeOH and sterile diH2O. Level to test is 125 ppm.
3. Place 50 ul of sterile distilled water in all of the rows in columns 1 through 10, and 100 ul of sterile distilled water in all of the rows in columns 11 and 12 of the 96 well combination microtiter plate. […]

[3] = Table 2 paint (Acrylic Flat / Vinyl Acrylic Flat), 1000 ppm
[4] = Table 2 paint (Acrylic Flat / Vinyl Acrylic Flat), 1500 ppm
[5] = Table 2 paint (Acrylic Flat / Vinyl Acrylic Flat), 2000 ppm
[6] = Table 2 paint (Acrylic Flat / Vinyl Acrylic Flat), 2500 ppm
[7] = Table 2 paint (Acrylic Flat / Vinyl Acrylic Flat), 3000 ppm
[8] = Table 2 paint (Acrylic Flat / Vinyl Acrylic Flat), 3500 ppm
[9] = Table 2 paint (Acrylic Flat / Vinyl Acrylic Flat), 4000 ppm
[10] = Table 3 paint (Vinyl Acrylic Flat / Acrylic Flat), 1000 ppm
[11] = Table 3 paint (Vinyl Acrylic Flat / Acrylic Flat), 1500 ppm
[12] = Table 3 paint (Vinyl Acrylic Flat / Acrylic Flat), 2000 ppm
[13] = Table 3 paint (Vinyl Acrylic Flat / Acrylic Flat), 2500 ppm
[14] = Table 3 paint (Vinyl Acrylic Flat / Acrylic Flat), 3000 ppm
[15] = Table 3 paint (Vinyl Acrylic Flat / Acrylic Flat), 3500 ppm
[16] = Table 3 paint (Vinyl Acrylic Flat / Acrylic Flat), 4000 ppm

SMILES: Oc1ccccc1-c1ccccc1 [OPP, Ortho-PhenylPhenol]
- Effective Preservative (ppm) ([1]; Acrylic Flat paint): >4000 ppm
- Microbial growth, 1st Inoculation, 1st sub-column ([1]; Acrylic paint, 1000 ppm): 3
- Microbial growth, 1st Inoculation, 2nd sub-column ([1]; Acrylic paint, 1000 ppm): 3
- Microbial growth, 2nd Inoculation, 1st sub-column ([1]; Acrylic paint, 1000 ppm): 3
- Microbial growth, 2nd Inoculation, 2nd sub-column ([1]; Acrylic paint, 1000 ppm): 3
- Microbial growth, 1st Inoculation, 1st sub-column ([1]; Acrylic paint, 1500 ppm): 3
- Microbial growth, 1st Inoculation, 2nd sub-column ([1]; Acrylic paint, 1500 ppm): 3
- Microbial growth, 2nd Inoculation, 1st sub-column ([1]; Acrylic paint, 1500 ppm): 3
- Microbial growth, 2nd Inoculation, 2nd sub-column ([1]; Acrylic paint, 1500 ppm): 3
- Microbial growth, 1st Inoculation, 1st sub-column ([1]; Acrylic paint, 2000 ppm): 3
- Microbial growth, 1st Inoculation, 2nd sub-column ([1]; Acrylic paint, 2000 ppm): 3
- Microbial growth, 2nd Inoculation, 1st sub-column ([1]; Acrylic paint, 2000 ppm): 3
- Microbial growth, 2nd Inoculation, 2nd sub-column ([1]; Acrylic paint, 2000 ppm): 3
- Microbial growth, 1st Inoculation, 1st sub-column ([1]; Acrylic paint, 2500 ppm): 3
- Microbial growth, 1st Inoculation, 2nd sub-column ([1]; Acrylic paint, 2500 ppm): 3
- Microbial growth, 2nd Inoculation, 1st sub-column ([1]; Acrylic paint, 2500 ppm): 3
- Microbial growth, 2nd Inoculation, 2nd sub-column ([1]; Acrylic paint, 2500 ppm): 3
- Microbial growth, 1st Inoculation, 1st sub-column ([1]; Acrylic paint, 3000 ppm): 3
- Microbial growth, 1st Inoculation, 2nd sub-column ([1]; Acrylic paint, 3000 ppm): 3
- Microbial growth, 2nd Inoculation, 1st sub-column ([1]; Acrylic paint, 3000 ppm): 3
- Microbial growth, 2nd Inoculation, 2nd sub-column ([1]; Acrylic paint, 3000 ppm): 3
- Microbial growth, 1st Inoculation, 1st sub-column ([1]; Acrylic paint, 3500 ppm): 3
- Microbial growth, 1st Inoculation, 2nd sub-column ([1]; Acrylic paint, 3500 ppm): 3
- Microbial growth, 2nd Inoculation, 1st sub-column ([1]; Acrylic paint, 3500 ppm): 3
- Microbial growth, 2nd Inoculation, 2nd sub-column ([1]; Acrylic paint, 3500 ppm): 3
- Microbial growth, 1st Inoculation, 1st sub-column ([1]; Acrylic paint, 4000 ppm): 3
- Microbial growth, 1st Inoculation, 2nd sub-column ([1]; Acrylic paint, 4000 ppm): 3
- Microbial growth, 2nd Inoculation, 1st sub-column ([1]; Acrylic paint, 4000 ppm): 3
- Microbial growth, 2nd Inoculation, 2nd sub-column ([1]; Acrylic paint, 4000 ppm): 3
- Effective Preservative (ppm) ([1]; Acrylic paint): >4000 ppm
- Microbial growth, 1st Inoculation, 1st sub-column [1, 3]: 3
- Microbial growth, 1st Inoculation, 2nd sub-column [1, 3]: 3
- Microbial growth, 2nd Inoculation, 1st sub-column [1, 3]: 3
- Microbial growth, 2nd Inoculation, 2nd sub-column [1, 3]: 3
- Microbial growth, 1st Inoculation, 1st sub-column [1, 4]: 3
- Microbial growth, 1st Inoculation, 2nd sub-column [1, 4]: 3
- Microbial growth, 2nd Inoculation, 1st sub-column [1, 4]: 3
- Microbial growth, 2nd Inoculation, 2nd sub-column [1, 4]: 3
- Microbial growth, 1st Inoculation, 1st sub-column [1, 5]: 3
- Microbial growth, 1st Inoculation, 2nd sub-column [1, 5]: 3
- Microbial growth, 2nd Inoculation, 1st sub-column [1, 5]: 3
- Microbial growth, 2nd Inoculation, 2nd sub-column [1, 5]: 3
- Microbial growth, 1st Inoculation, 1st sub-column [1, 6]: 3
- Microbial growth, 1st Inoculation, 2nd sub-column [1, 6]: 3
- Microbial growth, 2nd Inoculation, 1st sub-column [1, 6]: 3
- Microbial growth, 2nd Inoculation, 2nd sub-column [1, 6]: 3
- Microbial growth, 1st Inoculation, 1st sub-column [1, 7]: 3
- Microbial growth, 1st Inoculation, 2nd sub-column [1, 7]: 3
- Microbial growth, 2nd Inoculation, 1st sub-column [1, 7]: 3
- Microbial growth, 2nd Inoculation, 2nd sub-column [1, 7]: 3
- Microbial growth, 1st Inoculation, 1st sub-column [1, 8]: 3
- Microbial growth, 1st Inoculation, 2nd sub-column [1, 8]: 3
- Microbial growth, 2nd Inoculation, 1st sub-column [1, 8]: 3
- Microbial growth, 2nd Inoculation, 2nd sub-column [1, 8]: 3
- Microbial growth, 1st Inoculation, 1st sub-column [1, 9]: 3
- Microbial growth, 1st Inoculation, 2nd sub-column [1, 9]: 3
- Microbial growth, 2nd Inoculation, 1st sub-column [1, 9]: 3
- Microbial growth, 2nd Inoculation, 2nd sub-column [1, 9]: 3
- Microbial growth, 1st Inoculation, 1st sub-column [1, 10]: 2
- Microbial growth, 1st Inoculation, 2nd sub-column [1, 10]: 2
- Microbial growth, 2nd Inoculation, 1st sub-column [1, 10]: 2
- Microbial growth, 2nd Inoculation, 2nd sub-column [1, 10]: 2
- Microbial growth, 1st Inoculation, 1st sub-column [1, 11]: 2
- Microbial growth, 1st Inoculation, 2nd sub-column [1, 11]: 2
- Microbial growth, 2nd Inoculation, 1st sub-column [1, 11]: 2
- Microbial growth, 2nd Inoculation, 2nd sub-column [1, 11]: 2
- Microbial growth, 1st Inoculation, 1st sub-column [1, 12]: 2
- Microbial growth, 1st Inoculation, 2nd sub-column [1, 12]: 2
- Microbial growth, 2nd Inoculation, 1st sub-column [1, 12]: 2
- Microbial growth, 2nd Inoculation, 2nd sub-column [1, 12]: 2
- Microbial growth, 1st Inoculation, 1st sub-column [1, 13]: 2
- Microbial growth, 1st Inoculation, 2nd sub-column [1, 13]: 2
- Microbial growth, 2nd Inoculation, 1st sub-column [1, 13]: 2
- Microbial growth, 2nd Inoculation, 2nd sub-column [1, 13]: 2
- Microbial growth, 1st Inoculation, 1st sub-column [1, 14]: 2
- Microbial growth, 1st Inoculation, 2nd sub-column [1, 14]: 2
- Microbial growth, 2nd Inoculation, 1st sub-column [1, 14]: 2
- Microbial growth, 2nd Inoculation, 2nd sub-column [1, 14]: 2
- Microbial growth, 1st Inoculation, 1st sub-column [1, 15]: 2
- Microbial growth, 1st Inoculation, 2nd sub-column [1, 15]: 1
- Microbial growth, 2nd Inoculation, 1st sub-column [1, 15]: 2
- Microbial growth, 2nd Inoculation, 2nd sub-column [1, 15]: 1
- Microbial growth, 1st Inoculation, 1st sub-column [1, 16]: 2
- Microbial growth, 1st Inoculation, 2nd sub-column [1, 16]: 0
- Microbial growth, 2nd Inoculation, 1st sub-column [1, 16]: 2
- Microbial growth, 2nd Inoculation, 2nd sub-column [1, 16]: 0
- Effective Preservative (ppm) ([1]; Vinyl Acrylic Flat paint): 4000 ppm
- MIC ([2]; pH 7, read-out: MIC, biocide alone): > 1000 µg/mL
- Synergy Index ([2]; pH 8.0, 1000 ppm NaOPP alone (0:100)): 1.00
- Synergy Index ([2]; pH 9.0, 500 ppm NaOPP alone (0:100)): 1.00
